Measured values published in BindingDB's records for doi:10.1111/j.1476-5381.1994.tb14064.x (Glaxo Group Research, 1994).

What was measured:
VIP peptides = VIP peptides (Rattus norvegicus, UniProt P01283)
[1] = target: Muscarinic acetylcholine receptor M3 (Rattus norvegicus, UniProt P08483)
Somatostatin = Somatostatin (Rattus norvegicus, UniProt P60042)
B1 bradykinin receptor = B1 bradykinin receptor (Rattus norvegicus, UniProt P97583)
[2] = target: 5-hydroxytryptamine receptor 2C (Sus scrofa, UniProt K7GSR7)
[3] = target: Glutamate receptor ionotropic, NMDA 1 (Rattus norvegicus, UniProt P35439)
Substance-P receptor = Substance-P receptor (Rattus norvegicus, UniProt P14600)
Substance-P receptor, sequence (P14600 whole entry): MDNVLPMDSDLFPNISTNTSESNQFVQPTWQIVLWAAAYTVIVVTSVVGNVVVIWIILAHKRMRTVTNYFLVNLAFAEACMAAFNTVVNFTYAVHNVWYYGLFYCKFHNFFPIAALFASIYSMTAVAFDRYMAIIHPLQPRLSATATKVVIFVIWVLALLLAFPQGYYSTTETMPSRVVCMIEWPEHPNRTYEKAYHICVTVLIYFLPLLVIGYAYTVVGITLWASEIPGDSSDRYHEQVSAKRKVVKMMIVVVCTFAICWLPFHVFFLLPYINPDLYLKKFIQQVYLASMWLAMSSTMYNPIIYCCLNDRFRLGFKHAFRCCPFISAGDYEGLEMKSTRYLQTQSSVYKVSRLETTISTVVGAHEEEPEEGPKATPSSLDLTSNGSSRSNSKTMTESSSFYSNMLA

[4] = target: 5-hydroxytryptamine receptor 3A (Rattus norvegicus, UniProt P35563)
5-hydroxytryptamine receptor 3A, sequence (P35563 whole entry): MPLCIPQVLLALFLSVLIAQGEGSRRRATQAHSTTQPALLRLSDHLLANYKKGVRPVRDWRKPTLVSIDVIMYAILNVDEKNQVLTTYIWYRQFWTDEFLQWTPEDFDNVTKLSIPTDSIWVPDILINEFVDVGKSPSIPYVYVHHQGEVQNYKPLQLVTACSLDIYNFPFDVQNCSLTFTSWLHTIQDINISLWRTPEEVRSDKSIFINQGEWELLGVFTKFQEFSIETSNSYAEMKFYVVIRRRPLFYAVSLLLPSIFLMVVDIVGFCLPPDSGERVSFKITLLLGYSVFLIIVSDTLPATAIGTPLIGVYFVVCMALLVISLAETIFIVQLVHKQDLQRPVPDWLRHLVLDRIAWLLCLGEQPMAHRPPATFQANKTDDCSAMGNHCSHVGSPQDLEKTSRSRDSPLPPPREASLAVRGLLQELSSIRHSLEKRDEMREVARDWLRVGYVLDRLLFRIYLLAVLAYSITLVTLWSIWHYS

[5] = target: Alpha-2C adrenergic receptor (Rattus norvegicus, UniProt P22086)
[6] = target: Muscarinic acetylcholine receptor M1 (Rattus norvegicus, UniProt P08482)
Muscarinic acetylcholine receptor M1, sequence (P08482 whole entry): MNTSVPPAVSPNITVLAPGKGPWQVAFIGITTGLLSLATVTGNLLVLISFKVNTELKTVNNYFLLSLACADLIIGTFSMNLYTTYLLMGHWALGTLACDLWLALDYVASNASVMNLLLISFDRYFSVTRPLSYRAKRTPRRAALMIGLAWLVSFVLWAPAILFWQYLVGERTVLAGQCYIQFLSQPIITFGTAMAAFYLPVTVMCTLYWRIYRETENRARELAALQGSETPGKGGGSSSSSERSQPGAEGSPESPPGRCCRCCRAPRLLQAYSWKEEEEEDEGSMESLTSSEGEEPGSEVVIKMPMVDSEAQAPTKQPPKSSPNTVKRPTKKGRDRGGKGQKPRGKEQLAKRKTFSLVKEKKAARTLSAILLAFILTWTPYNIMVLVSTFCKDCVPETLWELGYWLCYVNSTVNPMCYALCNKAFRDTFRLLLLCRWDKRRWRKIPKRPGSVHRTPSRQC

Pro-neuropeptide Y = Pro-neuropeptide Y (Rattus norvegicus, UniProt P07808)
[7] = target: Calcitonin gene-related peptide 1 (Rattus norvegicus, UniProt P01256)
Calcitonin gene-related peptide 1, sequence (P01256 83-119 limits assumed): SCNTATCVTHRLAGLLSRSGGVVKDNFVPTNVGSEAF

Hrh3 protein = Hrh3 protein (Rattus norvegicus, UniProt Q5PPG3)
Hrh3 protein, sequence (Q5PPG3 whole entry): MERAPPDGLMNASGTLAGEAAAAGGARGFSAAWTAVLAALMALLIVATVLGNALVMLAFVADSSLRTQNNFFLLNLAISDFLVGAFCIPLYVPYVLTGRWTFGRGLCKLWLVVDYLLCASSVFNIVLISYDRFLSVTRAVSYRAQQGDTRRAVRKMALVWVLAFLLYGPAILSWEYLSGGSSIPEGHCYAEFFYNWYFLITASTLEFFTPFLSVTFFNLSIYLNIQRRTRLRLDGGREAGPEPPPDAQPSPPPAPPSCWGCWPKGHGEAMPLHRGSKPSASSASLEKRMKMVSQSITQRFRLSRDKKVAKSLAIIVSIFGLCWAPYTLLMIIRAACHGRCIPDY

[8] = target: Beta-2 adrenergic receptor (Cavia porcellus, UniProt Q8K4Z4)
[9] = target: Endothelin-converting enzyme 1 (Rattus norvegicus, UniProt P42893)
Adenosine receptor A1 = Adenosine receptor A1 (Rattus norvegicus, UniProt P25099)
Histamine H1 receptor = Histamine H1 receptor (Rattus norvegicus, UniProt P31390)
[10] = target: Beta-1 adrenergic receptor (Rattus norvegicus, UniProt P18090)
D(1A) dopamine receptor = D(1A) dopamine receptor (Rattus norvegicus, UniProt P18901)
D(1A) dopamine receptor, sequence (P18901 whole entry): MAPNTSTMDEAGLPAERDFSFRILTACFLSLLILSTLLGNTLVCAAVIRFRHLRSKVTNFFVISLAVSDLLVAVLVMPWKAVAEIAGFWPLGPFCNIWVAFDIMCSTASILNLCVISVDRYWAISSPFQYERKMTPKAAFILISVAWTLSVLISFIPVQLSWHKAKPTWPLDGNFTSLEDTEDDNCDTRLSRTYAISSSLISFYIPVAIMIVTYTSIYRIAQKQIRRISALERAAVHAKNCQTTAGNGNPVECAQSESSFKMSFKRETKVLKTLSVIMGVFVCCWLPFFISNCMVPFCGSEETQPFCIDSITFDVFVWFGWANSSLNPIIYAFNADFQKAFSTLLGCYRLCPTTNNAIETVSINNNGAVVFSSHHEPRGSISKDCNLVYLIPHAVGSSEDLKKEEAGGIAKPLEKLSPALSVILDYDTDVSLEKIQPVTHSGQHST

Vasopressin V2 receptor = Vasopressin V2 receptor (Rattus norvegicus, UniProt Q00788)
[11] = target: Gastrin/cholecystokinin type B receptor (Rattus norvegicus, UniProt P30553)
Gastrin/cholecystokinin type B receptor, sequence (P30553 whole entry): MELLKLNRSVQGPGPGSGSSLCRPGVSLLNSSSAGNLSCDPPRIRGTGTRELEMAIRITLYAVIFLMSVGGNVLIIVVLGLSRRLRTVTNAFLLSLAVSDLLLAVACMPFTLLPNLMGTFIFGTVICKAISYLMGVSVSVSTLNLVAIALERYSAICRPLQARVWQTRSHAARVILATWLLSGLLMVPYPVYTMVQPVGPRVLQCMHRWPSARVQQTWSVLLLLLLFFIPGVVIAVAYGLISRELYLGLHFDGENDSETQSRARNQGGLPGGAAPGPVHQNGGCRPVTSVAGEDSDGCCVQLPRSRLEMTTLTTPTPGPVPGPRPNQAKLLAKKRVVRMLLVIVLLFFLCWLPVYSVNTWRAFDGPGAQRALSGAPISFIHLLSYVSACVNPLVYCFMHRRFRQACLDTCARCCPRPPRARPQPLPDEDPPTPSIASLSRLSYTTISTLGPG

[12] = target: Gamma-aminobutyric acid (GABA) B receptor 1 (Rattus norvegicus, UniProt Q6MFX8)
Mu-type opioid receptor = Mu-type opioid receptor (Rattus norvegicus, UniProt P33535)
[13] = target: Muscarinic acetylcholine receptor M2 (Rattus norvegicus, UniProt P10980)
D(2) dopamine receptor = D(2) dopamine receptor (Rattus norvegicus, UniProt P61169)
D(2) dopamine receptor, sequence (P61169 whole entry): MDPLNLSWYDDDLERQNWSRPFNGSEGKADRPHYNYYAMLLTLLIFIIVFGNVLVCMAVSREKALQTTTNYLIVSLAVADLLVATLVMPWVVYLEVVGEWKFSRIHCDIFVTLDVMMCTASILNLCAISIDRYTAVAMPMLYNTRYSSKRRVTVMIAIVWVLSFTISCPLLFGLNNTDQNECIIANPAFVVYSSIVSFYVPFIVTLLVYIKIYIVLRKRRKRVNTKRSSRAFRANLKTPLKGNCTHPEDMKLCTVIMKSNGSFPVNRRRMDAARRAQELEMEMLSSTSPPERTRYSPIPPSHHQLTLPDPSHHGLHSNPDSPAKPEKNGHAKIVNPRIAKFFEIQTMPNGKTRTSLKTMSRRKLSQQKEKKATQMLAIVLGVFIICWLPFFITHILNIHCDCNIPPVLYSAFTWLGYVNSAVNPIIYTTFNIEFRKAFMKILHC

Substance-K receptor = Substance-K receptor (Rattus norvegicus, UniProt P16610)
Adenosine receptor A2a = Adenosine receptor A2a (Rattus norvegicus, UniProt P30543)
Adenosine receptor A2a, sequence (P30543 whole entry): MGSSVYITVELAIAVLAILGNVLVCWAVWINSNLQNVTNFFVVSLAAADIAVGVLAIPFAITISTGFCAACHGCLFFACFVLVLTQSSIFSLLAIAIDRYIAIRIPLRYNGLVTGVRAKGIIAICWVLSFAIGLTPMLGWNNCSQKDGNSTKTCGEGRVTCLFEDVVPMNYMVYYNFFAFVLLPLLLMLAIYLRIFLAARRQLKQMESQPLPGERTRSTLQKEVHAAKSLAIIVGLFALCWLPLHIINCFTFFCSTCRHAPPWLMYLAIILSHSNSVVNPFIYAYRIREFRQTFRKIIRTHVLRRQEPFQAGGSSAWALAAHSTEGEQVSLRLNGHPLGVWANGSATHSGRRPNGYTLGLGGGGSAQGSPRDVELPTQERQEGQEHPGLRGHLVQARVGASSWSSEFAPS

[14] = target: Kappa-type opioid receptor (Rattus norvegicus, UniProt P34975)
Kappa-type opioid receptor, sequence (P34975 whole entry): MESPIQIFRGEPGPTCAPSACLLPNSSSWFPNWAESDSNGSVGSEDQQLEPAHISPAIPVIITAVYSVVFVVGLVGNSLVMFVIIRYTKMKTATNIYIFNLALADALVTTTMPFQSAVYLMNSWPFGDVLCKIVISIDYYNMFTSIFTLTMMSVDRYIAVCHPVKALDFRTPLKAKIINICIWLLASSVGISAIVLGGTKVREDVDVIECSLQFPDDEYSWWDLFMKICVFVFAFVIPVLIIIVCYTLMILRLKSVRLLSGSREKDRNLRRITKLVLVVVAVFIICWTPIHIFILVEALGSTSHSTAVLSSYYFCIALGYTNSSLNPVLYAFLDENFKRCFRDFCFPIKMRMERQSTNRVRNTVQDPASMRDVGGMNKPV

[15] = target: Gamma-aminobutyric acid receptor subunit alpha-1 (Rattus norvegicus, UniProt P62813)
[16] = target: Alpha-1A adrenergic receptor (Rattus norvegicus, UniProt P43140)
Alpha-1A adrenergic receptor, sequence (P43140 whole entry): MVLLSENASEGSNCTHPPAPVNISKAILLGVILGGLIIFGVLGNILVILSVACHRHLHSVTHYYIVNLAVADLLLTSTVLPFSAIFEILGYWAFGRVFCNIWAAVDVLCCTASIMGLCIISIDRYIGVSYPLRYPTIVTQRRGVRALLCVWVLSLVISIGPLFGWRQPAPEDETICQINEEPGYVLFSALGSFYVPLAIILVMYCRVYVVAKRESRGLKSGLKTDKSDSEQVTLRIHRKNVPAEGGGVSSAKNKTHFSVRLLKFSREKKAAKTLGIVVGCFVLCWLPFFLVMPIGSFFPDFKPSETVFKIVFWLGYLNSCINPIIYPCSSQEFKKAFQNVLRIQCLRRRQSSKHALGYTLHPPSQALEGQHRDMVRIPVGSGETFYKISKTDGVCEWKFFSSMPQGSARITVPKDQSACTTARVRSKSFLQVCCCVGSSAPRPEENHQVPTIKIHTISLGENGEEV

Neuromedin-K receptor = Neuromedin-K receptor (Mus musculus, UniProt P47937)
[17] = target: Glycine amidinotransferase, mitochondrial (Rattus norvegicus, UniProt P50442)
[18] = target: Bombesin receptor subtype-3 (Rattus norvegicus, UniProt Q8K418)
Galanin peptides = Galanin peptides (Rattus norvegicus, UniProt P10683)
Galanin peptides, sequence (P10683 33-61 limits assumed): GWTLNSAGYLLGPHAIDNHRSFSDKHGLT

[19] = target: Rat vasopressin-neurophysin (Rattus norvegicus, UniProt Q6LEI5)
Rat vasopressin-neurophysin, sequence (Q6LEI5 whole entry): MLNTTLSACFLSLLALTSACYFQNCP

[20] = target: Nicotinic acetylcholine receptor (Rattus leucopus, UniProt Q62594)
Nicotinic acetylcholine receptor, sequence (Q62594 whole entry): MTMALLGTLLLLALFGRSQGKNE

B1 bradykinin receptor, sequence (P97583 whole entry): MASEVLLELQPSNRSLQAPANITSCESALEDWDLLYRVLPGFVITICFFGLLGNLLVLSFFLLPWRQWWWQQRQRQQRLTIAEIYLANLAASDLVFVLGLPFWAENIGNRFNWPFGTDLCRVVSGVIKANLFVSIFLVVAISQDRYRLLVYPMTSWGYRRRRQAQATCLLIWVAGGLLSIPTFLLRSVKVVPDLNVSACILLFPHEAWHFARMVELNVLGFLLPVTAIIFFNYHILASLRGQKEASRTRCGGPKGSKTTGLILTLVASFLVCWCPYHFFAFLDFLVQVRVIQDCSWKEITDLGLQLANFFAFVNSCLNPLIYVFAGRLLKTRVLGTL
VIP peptides, sequence (P01283 125-152 limits assumed): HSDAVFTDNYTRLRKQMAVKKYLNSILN

Cn1cc(C(=O)OCC2CCN(CCNS(C)(=O)=O)CC2)c2ccccc21 [GR 113808]
Ki (VIP peptides): > 10 µM | Ki [1]: > 10 µM | Ki (Somatostatin): > 10 µM | Ki (B1 bradykinin receptor): > 10 µM | Ki [2]: > 10 µM | Ki [3]: > 10 µM | Ki (Substance-P receptor): > 10 µM | Ki [4]: 1 µM | Ki [5]: > 10 µM | Ki [6]: 6.31 µM | Ki (Pro-neuropeptide Y): > 10 µM | Ki [7]: > 10 µM | Ki (Hrh3 protein): > 10 µM | Ki [8]: > 10 µM | Ki [9]: > 10 µM | Ki (Adenosine receptor A1): > 10 µM | Ki (Histamine H1 receptor): > 10 µM | Ki [10]: 7.94 µM | Ki (D(1A) dopamine receptor): > 10 µM | Ki (Vasopressin V2 receptor): > 10 µM | Ki [11]: > 10 µM | Ki [12]: > 10 µM | Ki (Mu-type opioid receptor): > 10 µM | Ki [13]: > 10 µM | Ki (D(2) dopamine receptor): > 10 µM | Ki (Substance-K receptor): > 10 µM | Ki (Adenosine receptor A2a): > 10 µM | Ki [14]: > 10 µM | Ki [15]: > 10 µM | Ki [16]: > 10 µM | Ki (Neuromedin-K receptor): > 10 µM | Ki [17]: > 10 µM | Ki [18]: > 10 µM | Ki (Galanin peptides): > 10 µM | Ki [19]: > 10 µM | Ki [20]: > 10 µM
